The values below come from publication PMC6545003, “Cytotoxic and cell cycle arrest properties of two steroidal alkaloids isolated from Holarrhena floribunda (G. Don) T. Durand & Schinz leaves” (BMC Complementary and Alternative Medicine, 2019).

In data set [1] the test system is HeLa cells. In words: MTT reduction assay. The class given is cell-based, human. The settings on record: for Selectivity index: HeLa versus non-cancerous KMST-6; for IC50: HeLa. On the technique in general: Tetrazolium dyes change colour on reduction, which living cells bring about.
Protocol: (§3) Viable cells were seeded at a density of 5 x10^4 cells/ml (100 μl/well) in 96-well plates and incubated in a humidified atmosphere of 5% CO2 and 95% air at 37°C for 24 h to form a cell monolayer. After 24 h, the cell culture medium was aspirated and 100 μl fresh medium containing varying concentrations of test compounds in log10 doses were added to the cells and the 96-well plates incubated for a further 24 h [16, 17].
(§4) After the 24 h treatments, 20 μl of 5 mg/ml MTT (prepared in PBS) was added to each well and the 96-well plates incubated for 3 h at 37°C in a 5% CO2 atmosphere. The supernatant was aspirated and 150 μl of isopropanol added to each well after which the plate was gently shaken for 15 min to solubilize the formazan crystals and the absorbance was measured at 560 nm using a Glomax Multi Detection System (Promega, USA). The percentage inhibition of cell proliferation was calculated using the formula below and IC50 values computed by non-linear regression analysis of log dose-response sigmoidal curves using GraphPad Prism version 6.05 for Windows (GraphPad Software, La Jolla California USA, www.graphpad.com). %Inhibition of Proliferation=100‐TestOD/UntreatedODx100%
Data set [2] deals with MCF-7 cells. Briefly: MTT reduction assay. Type of data set: cell-based, human. The settings on record: for Selectivity index: MCF-7 versus non-cancerous KMST-6.
Protocol: as §3, §4
The subject of data set [3] is HT-29 cells. In words: MTT reduction assay. The settings on record: for Selectivity index: HT-29 versus non-cancerous KMST-6. The class given is cell-based, human.
Protocol: as §3, §4
Data set [4] concerns KMST-6 non-cancerous fibroblast cells. Briefly: MTT reduction assay. Type of data set: cell-based, human.
Protocol: as §3, §4
The subject of data set [5] is HT-29 cells. Briefly: Cell cycle analysis, PI flow cytometry. The class given is cell-based, human. The conditions noted are these: HT-29, IC50 concentration, 12 and 24 h. The protocol:
(§1) Cells were seeded at a density of 2 × 10^5 cells/well in 6-well plates and incubated for 24 h at 37 °C in a CO2 incubator to form a monolayer. The cells were treated for 12 and 24 h with the isolated compounds at concentrations equivalent to the IC50 concentrations (as determined by the MTT reduction assay). After treatment, the cells were detached with trypsin, washed in PBS and the cell pellet was resuspended in 1 ml of 1% paraformaldehyde and placed on ice for 30 min. Ethanol (70%, v/v) was slowly added to the cells while the sample was vortexed to reduce cell clumping. The cells were stored at − 20 °C for 48 h, after which the cells were recovered by centrifugation at 4000 rpm for 10 min. The cell pellets were washed twice in PBS and then resuspended in 1 ml PBS containing 100 μg/ml RNase and 40 μg/ml propidium iodide. Cell cycle phase distribution was determined using a FACS Calibur Flow Cytometer (BD Biosciences Franklin Lakes, NJ, USA). The DNA content of 50,000 events was determined by ModFit software (Verity Software House, Topsham, ME), which provided histograms to evaluate the cell cycle distribution.

Data set [6] concerns HeLa cells. In words: Cell cycle analysis, PI flow cytometry. The class given is cell-based, human. The conditions noted are these: IC50 concentration, 24 h. The protocol: as §1
For data set [7], the system named is MCF-7 cells. Briefly: Cell cycle analysis, PI flow cytometry. The class given is cell-based, human. The settings on record: MCF-7, IC50 concentration. The method, then: as §1
For data set [8], the system named is HT-29 cells. Briefly: BrdU incorporation assay (chemiluminescent ELISA). The class given is cell-based, human. The conditions noted are these: HT-29, IC50 concentration. The method, then:
(§2) Cells were seeded at a density of 5 × 10^4 cells/well in black-walled 96-well microtiter plates and incubated for 24 h at 37 °C in a CO2 incubator to form a monolayer. The cells were treated for 12, 24 and 48 h with the isolated compounds at concentrations equivalent to the IC50 concentrations (as determined by the MTT reduction assay). Cell proliferation was determined using the ELISA-BrdU (5-bromo-2′-deoxyuridine) chemiluminescence assay kit (Roche, Germany), according to the manufacturer’s instruction, and expressed as the percentage DNA synthesis relative to the untreated control.
Background: Dividing cells build labelled thymidine or BrdU into new DNA.

Data set [9] concerns HeLa cells. Briefly: BrdU incorporation assay (chemiluminescent ELISA). The class given is cell-based, human. The settings on record: IC50 concentration. The method, then:
as §2

Data set [10] relates to MCF-7 cells. In words: BrdU incorporation assay (chemiluminescent ELISA). The class given is cell-based, human. The conditions noted are these: MCF-7, IC50 concentration. The protocol: as §2
On the set-up of data set [11]: method as in doi:10.1135/cccc20041506. The conditions noted are these: at a neuro-active concentration; cited from earlier work.
Where [12] appears, read: Homo sapiens, MTT, 24 h treatment, read-out: IC50.
The mark [13] stands for this setting: Homo sapiens, MCF7, MCF-7, MTT, 24 h treatment, read-out: IC50.
[14] abbreviates: Homo sapiens, HT-29, MTT, 24 h treatment, read-out: IC50.
The mark [15] stands for this setting: Homo sapiens, Fibroblast, KMST-6, MTT, 24 h treatment, read-out: IC50.

Read-outs that look alike come from different tables or passages of the source.

As usually defined, the IC50 is the concentration needed to halve the response being measured. For the molecule `COc1cccc2c1C(=O)c1c(O)c3c(c(O)c1C2=O)C[C@@](O)(C(=O)CO)C[C@@H]3O[C@H]1C[C@H](N)[C@H](O)[C@H](C)O1` [Dox, Doxorubicin], the values for the Selectivity index with HeLa cells [1], in the data set on MCF-7 cells [2] and in the data set on HT-29 cells [3] were 1.31, 0.57 and 0.27, respectively. Moreover, the IC50 in the data set on HeLa cells [1] (setting [12]) amounted to 3.57 µM; with MCF-7 cells [2] (setting [13]), 8.2 µM; in the data set on HT-29 cells [3] (setting [14]), 17.4 µM; in data set [4] (setting [15]), 4.68 µM.
In the case of `N.N.[Cl][Pt][Cl]` [Cisplatin], the Selectivity index is 2.11 in the data set on HeLa cells [1], 0.58 with MCF-7 cells [2] and 0.87 with HT-29 cells [3]. Also, the IC50 in the data set with HeLa cells [1] (MTT, 24 h treatment, read-out: IC50) was found to be 2.91 µM; in the data set with MCF-7 cells [2] (MCF-7, MTT, 24 h treatment, read-out: IC50) it was 10.6 µM; in the data set with HT-29 cells [3] (HT-29, MTT, 24 h treatment, read-out: IC50), 7.07 µM; in data set [4] (KMST-6, MTT, 24 h treatment, read-out: IC50) it was 6.14 µM.
`CC(=O)[C@H]1CC[C@H]2[C@@H]3CC=C4C[C@H](N)CC[C@]4(C)[C@H]3CC[C@]12C` [Compound 1, holamine]: the Selectivity index is recorded as 2.00 in the data set on HeLa cells [1], 3.82 in the data set on HT-29 cells [3] and 3.31 with HT-29 cells [3] (listed as C1). Besides, the IC50 with HeLa cells [1] (setting [12]) stood at 51.4 µM; with MCF-7 cells [2] (setting [13]), 42.8 µM; in the data set on HT-29 cells [3] (setting [14]) it was 31.1 µM; in data set [4] (setting [15]), 103 µM. In addition, the “Cell population in G2/M phase” value in the data set with HT-29 cells [5] is recorded as “significant increase”. Further, the “Cell population in G2/M-phase” value in the data set with HeLa cells [6] is recorded as “significant decrease”; with MCF-7 cells [7] (12 h), “significant increase”; with MCF-7 cells [7] (24 h), “not significant”. Further, the “Change in DNA synthesis between 12 and 24 h” value with HT-29 cells [8] and in the data set on MCF-7 cells [10] was “significant reduction” in each case. For the same molecule, the “Change in DNA synthesis between 24 and 48 h” value in the data set with HeLa cells [9] is “significant reduction”.
With `CC(=O)[C@H]1CC[C@H]2[C@@H]3CC[C@H]4C[C@H](N)CC[C@]4(C)[C@H]3CC[C@]12C` [Compound 2, funtumine], the IC50 with HeLa cells [1] (Homo sapiens, 24 h) is 46.2 µM; in the data set on MCF-7 cells [2] (Homo sapiens, MCF7, 24 h), 52.7 µM; with HT-29 cells [3] (Homo sapiens, HT-29, 24 h), 22.4 µM; in data set [4] (Homo sapiens, Fibroblast, 24 h), 85.5 µM. The Cytotoxicity result in data set [11] is listed as “no cytotoxicity”. The Selectivity index came to 1.85 in the data set with MCF-7 cells [2], 3.31 in the data set on HT-29 cells [3] and 3.82 with HT-29 cells [3] (listed as C2). In the data set with HT-29 cells [5], the “Cell population in G2/M phase” value is “significant increase”. Moreover, the “Cell population in G2/M-phase” value with MCF-7 cells [7] (12 h) and in the data set with MCF-7 cells [7] (24 h) was “significant increase” in each case. Also, the “Change in DNA synthesis between 12 and 24 h” value in the data set on HT-29 cells [8] was “significant reduction”; in the data set with HeLa cells [9] it was “significant reductions”. Further, the “Change in DNA synthesis between 24 and 48 h” value in the data set on HT-29 cells [8] is listed as “significant reduction”; with MCF-7 cells [10], “significantly (P < 0.05) reduced”.
